How the values were obtained:
MV-4-11 cells [1] = assay: Cell viability / growth inhibition (EZ-Cytox), MV-4-11; type: cell-based, human; details: for GI50: Homo sapiens, MV4-11, 72 h
Description: The cultured cells were incubated at 37°C with 5% CO2. Cell viability was assessed with a tetrazolium-based assay using the EZ-Cytox Cell Viability Assay kit (DaeilLab, Korea). Briefly, 2,000 ∼ 15,000 cells were plated in 96-well flat bottom plates in 100 µl of medium. The next day, the cells were treated with compounds along with dimethyl sulfoxide (DMSO, Fisher, Waltham, MA, USA) as a negative control. […] After incubation, the optical density (OD) was measured at a wavelength of 450 nm with a Victor multilabel reader (Perkin Elmer, Waltham, MA, USA).

MCF-7 cells = assay: Cell viability / growth inhibition (EZ-Cytox), MCF-7; type: cell-based; details: Homo sapiens, MCF7; Table 2, 72 h
Description: MV-4-11 human acute myeloid leukemia cells were purchased from the American Type Culture Collection (ATCC, Rockville, MD, USA, CRL-9591), and the cells were cultured in IMDM medium (Sigma Co., St. Louis, MO, USA) supplemented with 10% fetal bovine serum, 1% penicillin/streptomycin and 4 mM L-glutamine (Life Technology, Grand Island, NY). Jurkat (human acute T lymphocytic leukemia, ATCC TIB-152) and K562 (human chronic myelogenous leukemia, ATCC CCL-243) cells were cultured in RPMI-1640 (Sigma Co.), and MCF7 (human breast adenocarcinoma, ATCC HTB-22) and PC-3 (human prostate adenocarcinoma, ATCC CRL-1435) cells were cultured in DMEM (Sigma Co.) medium supplemented with 10% fetal bovine serum and 1% penicillin/streptomycin. The cultured cells were incubated at 37°C with 5% CO2. Cell viability was assessed with a tetrazolium-based assay using the EZ-Cytox Cell Viability Assay kit (DaeilLab, Korea). Briefly, 2,000 ∼ 15,000 cells were plated in 96-well flat bottom plates in 100 µl of medium. The next day, the cells were treated with compounds along with dimethyl sulfoxide (DMSO, Fisher, Waltham, MA, USA) as a negative control. […] After incubation, the optical density (OD) was measured at a wavelength of 450 nm with a Victor multilabel reader (Perkin Elmer, Waltham, MA, USA). The IC50 was calculated with nonlinear regression using Prism version 5.01 (GraphPad, La Jolla, CA, USA).

MV-4-11 cells [2] = assay: TUNEL assay; type: cell-based, human; details: 100 nM, 24 h
Description: For the terminal deoxynucleotidyl transferase dUTP nick end labeling (TUNEL) assay, the APO-DIRECT Kit (BD Biosciences, San Diego, CA, USA) was used. Briefly, 2 × 10^6 cells were harvested and fixed in 2% formaldehyde/PBS solution for 30 min. on ice. The fixed cells were washed twice with PBS and stored in 1 ml of 70 % ethanol at –20°C until use. After washing with wash buffer, the cells were incubated in DNA Labeling Solution (reaction buffer, TdT Enzyme, and FITC dUTP) for 60 min. at 37°C. After labelling, the cells were washed twice with rinse buffer. The cells were incubated with 200 µg/ml RNase A and 5 µg/ml PI for an additional 30 min at room temperature. […] was measured with an Accuri C6 flow cytometer.

MV-4-11 cells [3] = assay: Cell cycle analysis by PI flow cytometry; type: cell-based, human; details: 24 h
Description: For cell cycle analysis, cells were seeded in a 10 cm plate (2 × 10^6 cells per well) and treated with the LDD1937 compound. Then, the cells were fixed with ethanol and treated with RNase A (4 mg/mL) and stained with propidium iodide (PI) (Sigma Co). Cell cycle distribution was analyzed by flow cytometry with an Accuri C6 flow cytometer.

[4] = test system: PARP cleavage in MV-4-11 cells; assay: PARP cleavage western blot; type: cell-based, human; details: MV-4-11, 24 h
Description: (§1) Cells were lysed in SDS Lysis buffer (12 mM Tris-Cl, pH 6.8, 5% glycerol, and 0.4% SDS), and the protein concentrations were measured with the SMART BCA Protein Assay kit (iNtRON Biotechnology, Korea). The proteins were resolved with SDS-polyacrylamide gel electrophoresis followed by transfer to PVDF membranes (Millipore, Billerica, MA, USA) and incubated overnight with the appropriate antibodies. The antibodies used were as follows: phospho-STAT5 (p-STAT5; rabbit polyclonal IgG; #9351, 1:1,000), cyclin D1 (rabbit polyclonal IgG; #2922, 1:1,000), and PARP (rabbit polyclonal IgG; #9542, 1:1,000) from Cell Signaling Technology (Danver, MA, USA), STAT5 (rabbit polyclonal IgG; #sc-835, 1:1,000) from Santa Cruz (Santa Cruz, CA, USA), and β-actin (mouse monoclonal IgG; # A5441, 1:5000) from Sigma-Aldrich. Goat anti-rabbit IgG (#111-035-003; 1;5,000) and anti-mouse IgG (#115-035-033; 1:5,000) secondary antibodies were obtained from Jackson ImmunoResearch Laboratories, Inc. (West Grove, PA, USA).

[5] = test system: cyclin D1 level in MV-4-11 cells; assay: Cyclin D1 western blot; type: cell-based, human; details: MV-4-11, 16 h, from as low as 10 nM
Description: as §1

[6] = test system: phosphorylated STAT5 in MV-4-11 cells; assay: STAT5 phosphorylation western blot; type: cell-based, human; details: MV-4-11, 4 h
Description: as §1

[7] = Parallel artificial membrane permeability (PAMPA) assay; type: in vitro ADME

Question: Which results are given for COC(=O)c1ccc2c(c1)/C(=C1/Nc3ccccc3/C1=N\OCCN1CCNCC1)C(=O)N2.Cl.Cl [LDD1937, methyl (2Z,3E)-2′-oxo-3-((2-(piperazin-1-yl)ethoxy)imino)-[2,3′-biindolinylidene]-5′-carboxylate dihydrochloride]?
Answer: enhancement of MV-4-11 activity compared to the initial compound 1 (MV-4-11 cells [1]): 40 fold; GI50 (MV-4-11 cells [1]; 72 h, called IC50 in supplementary text): 1 ± 0.15 nM; GI50 (MV-4-11 cells [1]; Table 2, 72 h, mean ± S.D.): 1.2 ± 0.2 nM; GI50 (MCF-7 cells): 2140 ± 160 nM; TUNEL positive cell population (MV-4-11 cells [2]): 32.1%; G0/G1 Percent (MV-4-11 cells [3]; 10 nM): 54.4%; Sub-G1 Percent (MV-4-11 cells [3]; 100 nM): 31.3%; cleaved PARP ([4]; 1 nM): an increase in the cleaved PARP was detected; PARP cleavage ([4]; western blot): induced PARP cleavage in a dose-dependent manner; cyclin D1 level [5]: dose-dependent reduction of the cyclin D level; phosphorylated STAT5 ([6]; 1 nM): a reduction in the phosphorylated STAT5 was observed; phospho-STAT5 band ([6]; 0.1 µM): completely disappeared; PAMPA assay result [7]: –4.49 ± 0.140; PAMPA level of permeability [7]: medium level of permeability

Source: paper PMC5787524, “Discovery of a FLT3 inhibitor LDD1937 as an anti-leukemic agent for acute myeloid leukemia” (Oncotarget, 2017)
